From patent US12016906B2, “Pharmaceutical composition for anaemia” (Frimline Private Limited, priority 2018, dated 2024)

Legend:
Assay type in all cases: in vivo, male Wistar rats (Rat Rattus)
[1] = tested on: Iron deficient Diet (IDD) induced anaemia in rats; experiment: Serum ferritin level in IDD induced anaemia in rats; set-up: Ferritin % Change compared to Disease control: concentration or dose not given beside the values; settings: for Ferritin Post-treatment: Day 98, after 9 weeks of treatment p.o.; for Ferritin Post-treatment / Ferritin % Change compared to Disease control: IDD rats; for Ferritin % Change compared to Disease control: Day 98
Experimental: (§1) Screening of pharmaceutical composition/formulation comprising combination of Lactoferrin+Guanosine Nucleotide or a pharmaceutically acceptable salt thereof with or without optional ingredients against Iron deficient Diet (IDD) induced anaemia in rats. For this study different parameters like Hb Level, Hematocrit level, Serum Iron level, Ferroportin level, Serum Ferritin level, Hepcidin level and IL-6 Level were evaluated. The following trials were carried out by taking reference from Wang Xl, Liu S, Xu H, Yan W, Effects of recombinant human lactoferrin on improving the iron status of IDA. Wei Sheng Yan Jiu. 2012 January; 41(1):13-7, 22 and Nora M. El-Sheikh, the Protective Effect of Soybean and Thyme on Iron Deficiency Anemia in Rats, the Egyptian Journal of Hospital Medicine (2008) Vol., 33: 510-520 as available.
(§2) 72 male Wistar rats (Rat Rattus) (6 per group) were maintained in animal house in a light/dark atmosphere based on a 12 hour cycle having temperature and relative humidity in the range of 22±3° C. and 30-70% respectively. To maintain the appropriate conditions, temperature and relative humidity were recorded three times daily. All animals were acclimatized for a minimum period of five days. Animals were maintained in the test setup for minimum 30 minutes once during the acclimatization period to reduce the stress. Animals were weighed on the day of receipt and observed daily for abnormalities if any. Detailed records of acclimatization were also maintained. Rats were housed 6 per cage in clean, sterilized Polypropylene cages. During complete experiment, animals were supplied with the standard certified rat pellet feed (manufactured by Keval sales corporation, Vadodara) and drinking water treated by the reverse osmosis ad libitum. Analysis reports for microbial load and contaminants in feed and water and nutrient content of feed were also retained.
(§3) In order to evaluate the activity against IDD induced anaemia, seventy two (72) rats were screened and divided in to twelve groups. For a comparative analysis, groups were divided as normal control (Group 1), disease control (Group 2), treatment groups with individual components (Group 3, Group 4, Group 5, Group 6 and Group 7 as Lactoferrin, Disodium Guanosine monophosphate (GMP), Guanosine diphosphate (GDP), Guanosine triphosphate (GTP) and Vitamin C respectively), test composition/formulation of the present invention (Group 8 as combination of Lactoferrin Disodium GMP, Group 9 as combination of Lactoferrin GDP, Group 10 as combination of Lactoferrin+GTP, […] as combination of Lactoferrin+Disodium GMP+Vitamin C) and reference standard drug (Group 12). Table 1 provides the details of the various groups and treatments conducted in the trial wherein group no. G3 to G12 are treatment groups.
(§4) Group nos. 2 to 12 animals under consideration were administered IDD (3 mg Fe/Kg of diet) for the period of 3 weeks, while group 1 animal received Normal pellet diet (35 mg Fe/Kg of diet).
(§5) After 5 weeks (35 days) of respective dietary intervention, once again hemoglobin level, HCT % level and serum iron level were analyzed and then, respective drug treatment was started with continuous administration of Iron deficient diets in all groups as mentioned above in Table 1.
(§6) After 9 weeks of respective drug treatment (total after 14 weeks from start of the study—98 days), various biochemical parameters were measured to evaluate the effect of respective individual and combination therapy on iron deficient anaemia model (G3 to G12).
(§7) • A. Clinical observations (Daily) • B. Mortality (Daily) • C. […]

[2] = tested on: Iron deficient Diet (IDD) induced anaemia in rats; experiment: IL-6 level in IDD induced anaemia in rats; settings: for IL-6 Post-treatment: Day 98, after 9 weeks of treatment p.o.; for IL-6 Post-treatment / IL-6 % Change compared to Disease control: IDD rats; for IL-6 % Change compared to Disease control: Day 98
Experimental: as §1, with “Jiu.” for “Jiu. 2012 January; 41(1):13-7, 22 and Nora M. El-Sheikh, the Protective Effect of Soybean and Thyme on Iron Deficiency Anemia in Rats, the Egyptian Journal of Hospital Medicine (2008) Vol., 33: 510-520 as available.”
as §2, §3, §5, §6
• A. Clinical observations (Daily) • B. Mortality (Daily) • C. Body weight (Initially and then weekly till the end of study) • D. After 3 and 5 weeks of Iron deficient diet supplement • (i) Hematological parameters (RBC count, Hb Level, Hematocrit % MCV, MCH and MCHC). • (ii) Serum Iron Level. • E. At the end of 14 weeks of study • (i) Hematological parameters (RBC count, Hb Level, Hematocrit %, MCV, MCH and MCHC). • (ii) Biochemical parameters (Serum Iron level, Ferroportin level, Serum Ferritin level, Hepcidin level, IL-6 level). Statistical Analysis: One way ANOVA followed by Tuckey's test was performed and p value<0.05 is considered to be statistically significant. […] Hematology: (after 3 Weeks and 5 Weeks of Feed Intervention and after 9 Weeks of Treatment)

[3] = tested on: Iron deficient Diet (IDD) induced anaemia in rats; experiment: Hepcidin level in IDD induced anaemia in rats; set-up: Hepcidin % Change compared to Disease control: concentration or dose not given beside the values; settings: for Hepcidin Post-treatment: Day 98, after 9 weeks of treatment p.o.; for Hepcidin Post-treatment / Hepcidin % Change compared to Disease control: IDD rats; for Hepcidin % Change compared to Disease control: Day 98
Experimental: as §1, §2, §3, §4, §5, §6, §7

[4] = tested on: Iron deficient Diet (IDD) induced anaemia in rats; experiment: Ferroportin level in IDD induced anaemia in rats; set-up: Ferroportin % Change compared to Disease control: concentration or dose not given beside the values; settings: for Ferroportin Post-treatment: Day 98, after 9 weeks of treatment p.o.; for Ferroportin Post-treatment / Ferroportin % Change compared to Disease control: IDD rats; for Ferroportin % Change compared to Disease control: Day 98
Experimental: as §1, §2, §3, §4, §5, §6, §7

[5] = tested on: Iron deficient Diet (IDD) induced anaemia in rats; experiment: Hb level in IDD induced anaemia in rats; set-up: Hemoglobin % Change compared to Disease control: concentration or dose not given beside the values; settings: for Hemoglobin Pre-treatment: Day 35, before treatment; for Hemoglobin Pre-treatment / Hemoglobin Post-treatment / Hemoglobin % Change compared to Disease control: IDD rats; for Hemoglobin Post-treatment: Day 98, after 9 weeks of treatment p.o.; for Hemoglobin % Change compared to Disease control: Day 98
Experimental: as §1, with “Jiu.” for “Jiu. 2012 January; 41(1):13-7, 22 and Nora M. El-Sheikh, the Protective Effect of Soybean and Thyme on Iron Deficiency Anemia in Rats, the Egyptian Journal of Hospital Medicine (2008) Vol., 33: 510-520 as available.”
as §2, §3
After 3 weeks of respective dietary intervention, the level of Hemoglobin was determined in each animal.
as §5, §6
• A. Clinical observations (Daily) • B. Mortality (Daily) • C. Body weight (Initially and then weekly till the end of study) • D. After 3 and 5 weeks of Iron deficient diet supplement • (i) Hematological parameters (RBC count, Hb Level, Hematocrit % MCV, MCH and MCHC). • (ii) Serum Iron Level. • E. At the end of 14 weeks of study • (i) Hematological parameters (RBC count, Hb Level, Hematocrit %, MCV, MCH and MCHC). • (ii) Biochemical parameters (Serum Iron level, Ferroportin level, Serum Ferritin level, Hepcidin level, IL-6 level).

[6] = tested on: Iron deficient Diet (IDD) induced anaemia in rats; experiment: Serum iron level in IDD induced anaemia in rats; set-up: Serum IRON % Change compared to Disease control: concentration or dose not given beside the values; settings: for Serum IRON Pre-treatment: Day 35, before treatment; for Serum IRON Pre-treatment / Serum IRON Post-treatment / Serum IRON % Change compared to Disease control: IDD rats; for Serum IRON Post-treatment: Day 98, after 9 weeks of treatment p.o.; for Serum IRON % Change compared to Disease control: Day 98
Experimental: as §1, §2, §3, §4
(§8) After 3 weeks of respective dietary intervention, the level of Hemoglobin was determined in each animal. Looking at low increase in hemoglobin. Hematocrit % (HCT %) level and serum iron level, further dietary intervention was continued for additional two (2) weeks.
as §5, §6, §7

[7] = tested on: Iron deficient Diet (IDD) induced anaemia in rats; experiment: Hematocrit % level in IDD induced anaemia in rats; set-up: Hematocrit % Change compared to Disease control: concentration or dose not given beside the values; settings: for Hematocrit Pre-treatment: Day 35, before treatment; for Hematocrit Pre-treatment / Hematocrit Post-treatment / Hematocrit % Change compared to Disease control: IDD rats; for Hematocrit Post-treatment: Day 98, after 9 weeks of treatment p.o.; for Hematocrit % Change compared to Disease control: Day 98
Experimental: as §1, §2, §3, §4, §8, §5, §6, §7

[8] = rats on iron deficient diet, after treatment for 9 weeks, compared to disease control group (G2)
[9] = rats on iron deficient diet, after treatment of 9 weeks, compared to disease control group (G2)

## Nc1nc2c(ncn2[C@@H]2O[C@H](COP(=O)([O-])[O-])[C@@H](O)[C@H]2O)c(=O)[nH]1.[Na+].[Na+] [Disodium GMP, Disodium Guanosine 5-Monophosphate]
[1]
  Ferritin Post-treatment: 700 ng/mL
  Ferritin % Change compared to Disease control: −5.4%
[2]
  IL-6 Post-treatment: 62.9 pg/mL
  IL-6 % Change compared to Disease control: 0.9%
[3]
  Hepcidin Post-treatment: 4303 ng/mL
  Hepcidin % Change compared to Disease control: −2.2%
[4]
  Ferroportin Post-treatment: 3.0 ng/mL
  Ferroportin % Change compared to Disease control: 11.4%

## Nc1nc2c(ncn2[C@@H]2O[C@H](COP(=O)([O-])[O-])[C@@H](O)[C@H]2O)c(=O)[nH]1.[Na+].[Na+] [Disodiurn GMP]
[5]
  Hemoglobin Pre-treatment: 8.54 g/dL
  Hemoglobin Post-treatment: 9.18 g/dL
  Hemoglobin % Change compared to Disease control: 40.8%
[6]
  Serum IRON Pre-treatment: 2.82 ppm
  Serum IRON Post-treatment: 3.43 ppm
  Serum IRON % Change compared to Disease control: 28.8%
[7]
  Hematocrit Pre-treatment: 35.35%
  Hematocrit Post-treatment: 38.89%
  Hematocrit % Change compared to Disease control: 51.3%

## Nc1nc2c(ncn2[C@@H]2O[C@H](COP(=O)(O)OP(=O)(O)O)[C@@H](O)[C@H]2O)c(=O)[nH]1 [GDP, Guanosine diphosphate]
[5]
  Hemoglobin Pre-treatment: 8.62 g/dL
  Hemoglobin Post-treatment: 9.34 g/dL
  Hemoglobin % Change compared to Disease control: 43.4%
[1]
  Ferritin Post-treatment: 702 ng/mL
  Ferritin % Change compared to Disease control: −5.1%
[6]
  Serum IRON Pre-treatment: 3.30 ppm
  Serum IRON Post-treatment: 3.99 ppm
  Serum IRON % Change compared to Disease control: 49.7%
[2]
  IL-6 Post-treatment: 62.2 pg/mL
  IL-6 % Change compared to Disease control: −0.3%
[7]
  Hematocrit Pre-treatment: 35.61%
  Hematocrit Post-treatment: 37.77%
  Hematocrit % Change compared to Disease control: 46.9%
[3]
  Hepcidin Post-treatment: 4351 ng/mL
  Hepcidin % Change compared to Disease control: −1.1%
[4]
  Ferroportin Post-treatment: 3.0 ng/mL
  Ferroportin % Change compared to Disease control: 11.1%

## Nc1nc2c(ncn2[C@@H]2O[C@H](COP(=O)(O)OP(=O)(O)OP(=O)(O)O)[C@@H](O)[C@H]2O)c(=O)[nH]1 [GTP, Guanosine triphosphate]
[5]
  Hemoglobin Pre-treatment: 8.45 g/dL
  Hemoglobin Post-treatment: 9.12 g/dL
  Hemoglobin % Change compared to Disease control: 39.9%
[1]
  Ferritin Post-treatment: 698 ng/mL
  Ferritin % Change compared to Disease control: −5.7%
[6]
  Serum IRON Pre-treatment: 3.03 ppm
  Serum IRON Post-treatment: 3.98 ppm
  Serum IRON % Change compared to Disease control: 49.2%
[2]
  IL-6 Post-treatment: 62.2 pg/mL
  IL-6 % Change compared to Disease control: −0.2%
[7]
  Hematocrit Pre-treatment: 35.74%
  Hematocrit Post-treatment: 37.96%
  Hematocrit % Change compared to Disease control: 11.7%
[3]
  Hepcidin Post-treatment: 4392 ng/mL
  Hepcidin % Change compared to Disease control: −0.2%
[4]
  Ferroportin Post-treatment: 3.0 ng/mL
  Ferroportin % Change compared to Disease control: 9.5%

## O=S(=O)([O-])[O-].[Fe+2] [FeSO4, ferrous sulphate, reference compound]
[5]
  Hemoglobin Pre-treatment: 8.71 g/dL
  Hemoglobin Post-treatment: 15.2 g/dL
  Hemoglobin % Change compared to Disease control: 134.0%
[5]; [8]
  Hb level: significant increment
[1]
  Ferritin Post-treatment: 720 ng/mL
  Ferritin % Change compared to Disease control: −2.7%
[1]; [9]
  Serum Ferritin level: no significant change
[6]
  Serum IRON Pre-treatment: 2.43 ppm
  Serum IRON Post-treatment: 9.84 ppm
  Serum IRON % Change compared to Disease control: 269.2%
[6]; [8]
  Serum Iron level: significant increase
[2]
  IL-6 Post-treatment: 60.4 pg/mL
  IL-6 % Change compared to Disease control: −3.2%
[2]; [9]
  IL-6 level: no significant change
[7]
  Hematocrit Pre-treatment: 35.10%
  Hematocrit Post-treatment: 47.22%
  Hematocrit % Change compared to Disease control: 83.7%
[7]; [8]
  % Hematocrit level: significant increment
[3]
  Hepcidin Post-treatment: 4260 ng/mL
  Hepcidin % Change compared to Disease control: −3.2%
[3]; [9]
  Hepcidin level: no significant change
[4]
  Ferroportin Post-treatment: 3.0 ng/mL
  Ferroportin % Change compared to Disease control: 12.5%
[4]; [9]
  Ferroportin level: no significant change

## Vit C
[5]
  Hemoglobin Pre-treatment: 8.28 g/dL
  Hemoglobin Post-treatment: 9.22 g/dL
  Hemoglobin % Change compared to Disease control: 41.5%
[1]
  Ferritin Post-treatment: 689 ng/mL
  Ferritin % Change compared to Disease control: −6.9%
[6]
  Serum IRON Pre-treatment: 2.76 ppm
  Serum IRON Post-treatment: 3.54 ppm
  Serum IRON % Change compared to Disease control: 32.7%
[2]
  IL-6 Post-treatment: 63.4 pg/mL
  IL-6 % Change compared to Disease control: 1.6%
[7]
  Hematocrit Pre-treatment: 35.64%
  Hematocrit Post-treatment: 37.24%
  Hematocrit % Change compared to Disease control: 44.9%
[3]
  Hepcidin Post-treatment: 4267 ng/mL
  Hepcidin % Change compared to Disease control: −3.0%
[4]
  Ferroportin Post-treatment: 3.1 ng/mL
  Ferroportin % Change compared to Disease control: 12.9%
